From patent publication US20090246212A1, “DEVELOPMENT OF METHOD FOR SCREENING FOR DRUG CAPABLE OF IMPROVING PRODUCTION OF REGULATORY T CELLS AND METHOD FOR PRODUCING REGULATORY T CELLS USING IMMUNOSUPPRESSIVE MACROLIDE ANTIBIOTIC” (KYOTO UNIVERSITY, priority 2005, published 2009)

Key:
[1] = system: CD45RA^+CD25^−CD4^+ T cell line; experiment: Mixed lymphocyte reaction with trans-well, rapamycin-cultured CD45RA^+CD25^−CD4^+ T cell line; type: cell-based, human; details: rapamycin 20 nM from day 40
Procedure: (§1) CD45RA^+CD25^+CD4^+ T cells or CD45RA^+CD25^−CD4^+ T cells in human peripheral blood separated in the same manner as Example 1 (5×10̂4 cells/well) were stimulated with anti-human CD3 and CD28 conjugate beads in a ratio of 4 beads per cell in a 96-well round-bottomed culture plate containing 200 μl per well of a proliferation medium (AlyS505N (produced by Cell Science & Technology Institute) supplemented with 2% human AB serum) in the presence of human IL-2 (1000 U/ml, produced by Cell Science & Technology Institute). Rapamycin (20 nM, produced by Sigma) was added to the medium 40 days after the start of cultivation. Every 3 to 4 days, half of the medium was replaced with a fresh proliferation medium containing IL-2. If necessary, the cells were separated and repeatedly re-stimulated with anti-CD3/CD28 antibody conjugate beads every 10 to 14 days. Fifty days after the start of cultivation, the cells were collected and used for functional assay.
Total CD4^+ T cells in peripheral blood were isolated in the same manner as Example 1. […] The culture product was collected, and [3H] thymidine uptake was measured using 1450 Microbeta TriLux (Wallac).

[2] = system: CD45RA^+CD25^+CD4^+ T cells; experiment: FACS phenotype analysis of the T cell line from CD45RA^+CD25^+CD4^+ T cells cultured with rapamycin; type: cell-based, human
Procedure: PBMC derived from the subjects, or expanded T cell line were incubated with various antibodies for 30 min at 4° C. in the dark, washed, and analyzed using a BD FACSAria cell sorter and a FACSDiVA software (Becton Dickinson). The antibodies used were perCP-conjugated anti-CD4 mAb, biotin-conjugated anti-CD25 mAb, FITC-conjugated anti-CD45RA mAb, PE-conjugated anti-CD45RB mAb, anti-CD45RO mAb, anti-CD62L mAb, anti-CD38 mAb, anti-GITR mAb, and anti-TNFRII mAb. For intracellular staining with CTLA-4, the cells were subjected to cell surface staining, fixation, and permeabilization with Cytofix/Cytoperm solution (Becton Dickinson), and then intracellularly stained with PE-conjugated anti-CTLA-4.
as §1, with “the medium 0 or 40 days” for “the medium 40 days”, “used for FACS analysis.” for “used for functional assay.”
Expanded T cell lines were incubated with various antibodies for 30 minutes at 4° C. in the dark, washed, and analyzed using BD FACSAria cell sorter and FACSDiVA software (Becton Dickinson). The antibodies and staining conditions used were the same as Example 1.

mouse CD4^+ T = details: cited from earlier work
[3] = system: CD45RA^+CD25^+CD4^+ T cells; experiment: Expansion culture of CD45RA^+CD25^+CD4^+ T cells with anti-CD3/CD28 beads and IL-2, rapamycin added; type: cell-based, human; details: for increase of cell number in the culture product: 50 days after start
Procedure: Venous blood was obtained from healthy volunteers (human). Peripheral blood mononuclear cell (PBMC) was isolated by Ficoll-Hypaque (Amersham Biosciences-Uppsala) density gradient centrifugation. The cells were stained with allophycocyanin (APC)-conjugated anti-CD4 monoclonal antibody (mAb), phycoerythrin (PE)-conjugated anti-CD25 mAb, and fluorescein isothiocyanate (FITC)-conjugated anti-CD45RA mAb for 30 min at 4° C. in the dark, after which the following six different cell fractions were isolated using a BD FACSAria cell sorter (Becton Dickinson)(see FIG. 1A).
CD45RA^+CD25^+CD4^+ T cells or CD45RA^+CD25^−CD4^+ T cells (5×10̂4 cells/well) separated as described above were stimulated with anti-human CD3 and CD28 conjugate beads in a ratio of 4 beads per cell in a 96-well round-bottomed culture plate containing 200 μl per well of a proliferation medium (AlyS505N (produced by Cell Science & Technology Institute) supplemented with 2% human AB serum) in the presence of human IL-2 (1000 U/ml, produced by Cell Science & Technology Institute). Rapamycin (20 nM, produced by Sigma) was added as appropriate. Every 3 to 4 days, half of the medium was replaced with a fresh proliferation medium containing IL-2. If necessary, the cells were separated and repeatedly re-stimulated with anti-CD3/CD28 antibody conjugated beads every 10 to 14 days. Two days before functional assay, the anti-CD3/CD28 antibody conjugated beads were removed magnetically, and the cells were cultured along with 100 U/ml IL-2 in the absence of rapamycin. After 3 times of washing, the cells were used for functional assay.

[4] = rapamycin 20 nM from day 40, collected day 50
[5] = stimulated in the presence of rapamycin

Question: With `CO[C@H]1C[C@@H]2CC[C@@H](C)[C@@](O)(O2)C(=O)C(=O)N2CCCC[C@H]2C(=O)O[C@H]([C@H](C)C[C@@H]2CC[C@@H](O)[C@H](OC)C2)CC(=O)[C@H](C)/C=C(\C)[C@@H](O)[C@@H](OC)C(=O)[C@H](C)C[C@H](C)/C=C/C=C/C=C/1C` [rapamycin] as the compound, how does the “T cell line's effect on proliferation of total CD4^+ T cells” value ([1]; conditions that allow cell contact) read?
Answer: strongly suppressed

Question: And the “suppression of the proliferation of total CD4^+ T cells by the T cell line” value ([1]; contact blocked with the trans-well)?
Answer: continued to suppress

Question: What about the “CD45RO phenotype of the T cell line” value ([2]; rapamycin 20 nM from day 0, collected day 50) of the same compound?
Answer: negative

Question: What about the “CD25 expression relative to CD45RA^−CD25^high+CD4^+ T cells in peripheral blood” value [2, 4] of the same compound?
Answer: about 0.8 times

Question: What about the “CD45RA expression relative to CD45RA^+CD25^+CD4^+ T cells in peripheral blood” value [2, 4] of the same compound?
Answer: about ⅙

Question: And the “CD45RB expression relative to CD45RA^−CD25^high+CD4^+ T cells in peripheral blood” value [2, 4]?
Answer: about 4 times

Question: And the “CD45RO expression relative to CD45RA^−CD25^high+CD4^+ T cells in peripheral blood” value [2, 4]?
Answer: about 1/50

Question: What about the “CD62L expression relative to CD45RA^−CD25^high+CD4^+ T cells in peripheral blood” value [2, 4] of the same compound?
Answer: about ⅙

Question: What about the “GITR / CTLA4 phenotype of the T cell line” value [2, 4] of the same compound?
Answer: GITR^+CTLA4^+

Question: What about the “CD4^+CD25^+FOXP3^+ regulatory T cells” value (mouse CD4^+ T; mouse CD4^+ T stimulated with an antigen in the presence of rapamycin) of the same compound?
Answer: expanded selectively

Question: What about the “expression of FOXP3 in CD4^+CD25^− T cells” value (mouse CD4^+ T; [5]) of the same compound?
Answer: did not enhance

Question: What about the “proliferation of isolated CD4^+CD25^+ T cells” value (mouse CD4^+ T; [5]) of the same compound?
Answer: proliferated vigorously

Question: What about the “suppressive function of the T cell population produced from CD4^+CD25^+ T cells” value (mouse CD4^+ T; [5]) of the same compound?
Answer: having suppressive function

Question: What about the “suppressive function of the T cell population produced from CD4^+CD25^− T cells” value (mouse CD4^+ T; [5]) of the same compound?
Answer: without suppressive function

Question: What about the “increase of cell number in the culture product” value (from here on “increase of cell number”) ([3]; rapamycin 20 nM added 7 days after start) of the same compound?
Answer: about 60 times

Question: And the “proliferation of the CD45RA^+CD25^+CD4^+ T cell line” value ([3]; rapamycin 20 nM added 7 days or 39 days after start of cultivation)?
Answer: suppressed after the time of addition

Question: What about the “increase of cell number” value ([3]; rapamycin 20 nM added 39 days after start) of the same compound?
Answer: about 700 times

Question: What about the “proliferation of CD45RA^+CD25^+CD4^+ T cells” value ([3]; rapamycin 20 nM added from the start of cultivation) of the same compound?
Answer: suppressed

Question: And the “increase of cell number” value ([3]; rapamycin 20 nM added from the start of cultivation (day 0))?
Answer: about 20 times
